# Measured values taken from patent US20220195487A1, “Method for Measuring Inhibition of Bacteria by Antibacterial Drug, and Bacterial Counting Device and Method Thereof” (BEIJING XINJI JINNUO MEDICAL EQUIPMENT CO.,LTD., priority 2019, published 2022).
# Columns and labels:
# Type in all cases: cell-based
# [1] = tested on: Pseudomonas aeruginosa (ATCC27853); test: 2 h susceptibility by resistance bacterial counter; conditions: Example 3, resistance counting, 2 h at 37° C., 60% of the positive count value as threshold
# Experimental: (§1) 2.2.1 Preparation of bacterial strains: In accordance with the requirements of the CLSI standards, pick each fresh strains within 24 h with a turbidity of 0.5 McFarland units in the column of strain name in Table 5;
# (§2) 2.2.2 Inoculation: Take 100 μL of each bacterial suspension with a turbidity of 0.5 McFarland units and dispense to a 48-well plate with pre-configured gradient antibiotics, 500 μL dispensed in each well;
# (§3) 2.2.3 Incubation and detection: Incubate for 2 h at 37° C., and measure with a resistance bacterial counter. Adjust the instrument to its best sensitivity and then count bacteria. Record the 24 h routine susceptibility results for comparative analysis.
# [2] = tested on: Pseudomonas aeruginosa (ATCC27853); test: rapid drug susceptibility testing of living cells (live bacteria counting, 2 h); conditions: for Living cell counts: 2 h
# Experimental: (§4) 1.2.1 Preparation of bacterial strains: in accordance with the requirements of the CLSI standards, pick each fresh strains within 24 h with a turbidity of 0.5 McFarland units in the column of strain name in Table 7.
# (§5) 1.2.2 Inoculation: take 100 μL of each bacterial suspension with a turbidity of 0.5 McFarland units and dispense to a 48-well plate with pre-configured gradient antibiotics, 500 μL dispensed in each well.
# (§6) 1.2.3 Incubation and detection: incubate for 2 h at 37° C., and perform live bacteria counting. Record the 24 h routine susceptibility results for comparative analysis.
# [3] = tested on: Pseudomonas aeruginosa (ATCC27853); test: 24 h routine (conventional) drug susceptibility testing by visual observation
# Acinetobacter baumannii [4] = test: 2 h susceptibility by resistance bacterial counter; conditions: Example 3, resistance counting, 2 h at 37° C., 60% of the positive count value as threshold
# Experimental: as §1, §2, §3
# Acinetobacter baumannii [5] = test: rapid drug susceptibility testing of living cells (live bacteria counting, 2 h); conditions: for Living cell counts: 2 h
# Experimental: as §4, §5, §6
# Acinetobacter baumannii [6] = test: 24 h routine (conventional) drug susceptibility testing by visual observation
# [7] = tested on: Escherichia coli ATCC 25922; test: rapid susceptibility test by resistance counting method (Coulter principle)
# Experimental: A method for measuring inhibition of Escherichia coli ATCC 25922 by ampicillin (by the resistance counting method).
# The standard strain ATCC 25922 Escherichia coli was transferred for use later and incubated at 37° C. for 18 hours.
# Ten of the drug susceptibility testing tubes (or cups) contained the required antibiotics of concentrations via doubling dilution (refer to American CLSI standards for concentrations for different drugs); the eleventh tube without antibiotics is used as a positive control (PC); the twelfth tube without bacterial suspension is used as a negative control (NC).
# Prepare the bacterial strain and triturate on the wall of a vial with Mueller Hinton broth (MH for antibiotics susceptibility testing) to mix evenly, close the cap and measure the turbidity with a nephelometer (BD PhoenixSpec Nephelometer), the turbidity being 0.5 McFarland units, and set aside to be used later.
# Inoculate the bacteria to be tested at an inoculum concentration specified in the CLSI (American Clinical and Laboratory Standards Institute) method for broth dilution drug susceptibility testing, and incubate in an incubator at 37° C.
# Preparation of bacterial suspension: pick a spare colony to prepare bacterial suspension, the concentration of the bacterial suspension being 0.5 McFarland units. Add the colony suspension to (MH) broths containing different concentrations of various antibiotics and the content of bacteria in each tube after inoculation is 1×10∧4 cfu/mL to 5×10∧7 cfu/mL, optimally 5×10∧6 cfu/mL (colony forming units/mL), i.e. optimally 5×10∧6 colony forming units per mL.
# Incubate in an incubator at 37° C., perform bacterial counting at 0 min, 10 min, 30 min, 60 min, 90 min and 120 min respectively by the resistance counting method (OMEC (Zhuhai) RC-3000 resistance (Coulter) particle counter). Measure twice, take the average value and record the data.
# There were 12 tubes for testing, the eleventh tube being the positive control (PC), the twelfth tube being the negative control (NC) and the other 10 tubes being the test tubes. At each detection time point, measurements were carried out for all 12 tubes.
# [8] = tested on: Escherichia coli ATCC 25922; test: VITEK microbial identification susceptibility system; conditions: ATCC25922, read-out: minimum inhibitory concentration
# Experimental: (§7) In addition, the bacteria in this example were also subjected to three other methods of drug susceptibility testing, namely, measuring the inhibition of Escherichia coli ATCC 25922 in this example by ampicillin according to the operating manual of the VITEK microbial identification susceptibility system from Merieux, France, with a minimum inhibitory concentration of 4 μg/mL (micrograms per milliliter); measuring the inhibition of Escherichia coli ATCC 25922 in this example by ampicillin according to the Etest method, as detailed in the operating manual of the Etest kit from Thermo Fisher, USA, with a minimum inhibitory concentration of 2 μg/mL; and measuring the inhibition of Escherichia coli ATCC 25922 in this example by ampicillin according to broth dilution drug susceptibility testing method as specified in the broth dilution susceptibility standards by the American Clinical and Laboratory Standards Institute, with a minimum inhibitory concentration of 4 μg/mL. It can be seen that their results are all consistent and sensitive.
# [9] = tested on: Escherichia coli ATCC 25922; test: broth dilution drug susceptibility testing method (CLSI); conditions: ATCC25922, read-out: minimum inhibitory concentration
# Experimental: as §7
# [10] = tested on: Escherichia coli ATCC 25922; test: Etest method; conditions: ATCC25922, read-out: minimum inhibitory concentration
# Experimental: as §7
# Klebsiella pneumoniae [11] = test: 2 h susceptibility by resistance bacterial counter; conditions: Example 3, resistance counting, 2 h at 37° C., 60% of the positive count value as threshold
# Experimental: as §1, §2, §3
# Klebsiella pneumoniae [12] = test: rapid drug susceptibility testing of living cells (live bacteria counting, 2 h); conditions: for Living cell counts: 2 h
# Experimental: as §4, §5, §6
# Klebsiella pneumoniae [13] = test: 24 h routine (conventional) drug susceptibility testing by visual observation
# [14] = tested on: Enterococcus faecalis (ATCC29212); test: 2 h susceptibility by resistance bacterial counter; conditions: Example 3, resistance counting, 2 h at 37° C., 60% of the positive count value as threshold
# Experimental: as §1, §2, §3
# [15] = tested on: Enterococcus faecalis (ATCC29212); test: rapid drug susceptibility testing of living cells (live bacteria counting, 2 h); conditions: for Living cell counts: 2 h
# Experimental: as §4, §5, §6
# [16] = tested on: Enterococcus faecalis (ATCC29212); test: 24 h routine (conventional) drug susceptibility testing by visual observation
# [17] = Example 4, live bacteria counting, 2 h at 37° C.
# [18] = Example 3, 24 h routine susceptibility
# [19] = Example 4, 24 h routine susceptibility
compound,measurement,setting,value
CC(C)(O/N=C(\C(=O)N[C@@H]1C(=O)N2C(C(=O)[O-])=C(C[n+]3ccccc3)CS[C@H]12)c1csc(N)n1)C(=O)O [Ceftazidime],2 hMIC,[1],4
same,Living cell counts,[2]; 0.03 μg/mL,1509 cells/μL
same,Living cell counts,[2]; 0.06 μg/mL,1478 cells/μL
same,Living cell counts,[2]; 0.12 μg/mL,1513 cells/μL
same,Living cell counts,[2]; 0.25 μg/mL,1480 cells/μL
same,Living cell counts,[2]; 0.5 μg/mL,1235 cells/μL
same,Living cell counts,[2]; 1 μg/mL,1090 cells/μL
same,Living cell counts,[2]; 2 μg/mL,308 cells/μL
same,Living cell counts,[2]; 4 μg/mL,297 cells/μL
same,Living cell counts,[2]; 8 μg/mL,202 cells/μL
same,Living cell counts,[2]; 16 μg/mL,209 cells/μL
same,"MIC, rapid drug susceptibility testing of living cells",[2]; [17],2 µg/mL
same,24 hMIC,[3]; [18],2
same,"MIC, conventional drug susceptibility testing",[3]; [19],2 µg/mL
C[C@@H](O)[C@H]1C(=O)N2C(C(=O)O)=C(S[C@@H]3CN[C@H](C(=O)N(C)C)C3)[C@H](C)[C@H]12 [Meropenem],2 hMIC,Acinetobacter baumannii [4],0.12
same,Living cell counts,Acinetobacter baumannii [5]; 0.03 μg/mL,7959 cells/μL
same,Living cell counts,Acinetobacter baumannii [5]; 0.06 μg/mL,6495 cells/μL
same,Living cell counts,Acinetobacter baumannii [5]; 0.12 μg/mL,1574 cells/μL
same,Living cell counts,Acinetobacter baumannii [5]; 0.25 μg/mL,1570 cells/μL
same,Living cell counts,Acinetobacter baumannii [5]; 0.5 μg/mL,1514 cells/μL
same,Living cell counts,Acinetobacter baumannii [5]; 1 μg/mL,1490 cells/μL
same,Living cell counts,Acinetobacter baumannii [5]; 2 μg/mL,1479 cells/μL
same,Living cell counts,Acinetobacter baumannii [5]; 4 μg/mL,1561 cells/μL
same,Living cell counts,Acinetobacter baumannii [5]; 8 μg/mL,1003 cells/μL
same,Living cell counts,Acinetobacter baumannii [5]; 16 μg/mL,979 cells/μL
same,"MIC, rapid drug susceptibility testing of living cells",Acinetobacter baumannii [5]; [17],0.12 µg/mL
same,24 hMIC,Acinetobacter baumannii [6]; [18],0.12
same,"MIC, conventional drug susceptibility testing",Acinetobacter baumannii [6]; [19],0.12 µg/mL
CC1(C)S[C@@H]2[C@H](NC(=O)[C@H](N)c3ccccc3)C(=O)N2[C@H]1C(=O)O [ampicillin],bacterial counts,"[7]; 0 min, 0.5 μg/mL",210 cells/μL
same,bacterial counts,"[7]; 0 min, 1 μg/mL",230 cells/μL
same,bacterial counts,"[7]; 0 min, 2 μg/mL",208 cells/μL
same,bacterial counts,"[7]; 0 min, 4 μg/mL",206 cells/μL
same,bacterial counts,"[7]; 0 min, 8 μg/mL",204 cells/μL
same,bacterial counts,"[7]; 0 min, 16 μg/mL",208 cells/μL
same,bacterial counts,"[7]; 0 min, 32 μg/mL",210 cells/μL
same,bacterial counts,"[7]; 0 min, 64 μg/mL",220 cells/μL
same,bacterial counts,"[7]; 0 min, 128 μg/mL",212 cells/μL
same,bacterial counts,"[7]; 0 min, 256 μg/mL",207 cells/μL
same,bacterial counts,"[7]; 60 min, 0.5 μg/mL",807 cells/μL
same,bacterial counts,"[7]; 60 min, 1 μg/mL",789 cells/μL
same,bacterial counts,"[7]; 60 min, 2 μg/mL",811 cells/μL
same,bacterial counts,"[7]; 60 min, 4 μg/mL",304 cells/μL
same,bacterial counts,"[7]; 60 min, 8 μg/mL",250 cells/μL
same,bacterial counts,"[7]; 60 min, 16 μg/mL",264 cells/μL
same,bacterial counts,"[7]; 60 min, 32 μg/mL",290 cells/μL
same,bacterial counts,"[7]; 60 min, 64 μg/mL",278 cells/μL
same,bacterial counts,"[7]; 60 min, 128 μg/mL",214 cells/μL
same,bacterial counts,"[7]; 60 min, 256 μg/mL",350 cells/μL
same,bacterial counts,"[7]; 90 min, 0.5 μg/mL",1540 cells/μL
same,bacterial counts,"[7]; 90 min, 1 μg/mL",1469 cells/μL
same,bacterial counts,"[7]; 90 min, 2 μg/mL",1511 cells/μL
same,bacterial counts,"[7]; 90 min, 4 μg/mL",432 cells/μL
same,bacterial counts,"[7]; 90 min, 8 μg/mL",502 cells/μL
same,bacterial counts,"[7]; 90 min, 16 μg/mL",500 cells/μL
same,bacterial counts,"[7]; 90 min, 32 μg/mL",491 cells/μL
same,bacterial counts,"[7]; 90 min, 64 μg/mL",489 cells/μL
same,bacterial counts,"[7]; 90 min, 128 μg/mL",367 cells/μL
same,bacterial counts,"[7]; 90 min, 256 μg/mL",460 cells/μL
same,bacterial counts,"[7]; 120 min, 0.5 μg/mL",2534 cells/μL
same,bacterial counts,"[7]; 120 min, 1 μg/mL",2456 cells/μL
same,bacterial counts,"[7]; 120 min, 2 μg/mL",2463 cells/μL
same,bacterial counts,"[7]; 120 min, 4 μg/mL",590 cells/μL
same,bacterial counts,"[7]; 120 min, 8 μg/mL",524 cells/μL
same,bacterial counts,"[7]; 120 min, 16 μg/mL",560 cells/μL
same,bacterial counts,"[7]; 120 min, 32 μg/mL",578 cells/μL
same,bacterial counts,"[7]; 120 min, 64 μg/mL",641 cells/μL
same,bacterial counts,"[7]; 120 min, 128 μg/mL",498 cells/μL
same,bacterial counts,"[7]; 120 min, 256 μg/mL",512 cells/μL
same,MIC,"[7]; ATCC25922, resistance method, Escherichia coli ATCC 25922, read-out: minimum inhibitory concentration (MIC)",4 µg/mL
same,MIC,[8],4 µg/mL
same,MIC,[9],4 µg/mL
same,MIC,[10],2 µg/mL
Gentamicin,2 hMIC,Klebsiella pneumoniae [11],4
same,Living cell counts,Klebsiella pneumoniae [12]; 0.03 μg/mL,11879 cells/μL
same,Living cell counts,Klebsiella pneumoniae [12]; 0.06 μg/mL,11426 cells/μL
same,Living cell counts,Klebsiella pneumoniae [12]; 0.12 μg/mL,10167 cells/μL
same,Living cell counts,Klebsiella pneumoniae [12]; 0.25 μg/mL,10278 cells/μL
same,Living cell counts,Klebsiella pneumoniae [12]; 0.5 μg/mL,10971 cells/μL
same,Living cell counts,Klebsiella pneumoniae [12]; 1 μg/mL,10654 cells/μL
same,Living cell counts,Klebsiella pneumoniae [12]; 2 μg/mL,10549 cells/μL
same,Living cell counts,Klebsiella pneumoniae [12]; 4 μg/mL,10876 cells/μL
same,Living cell counts,Klebsiella pneumoniae [12]; 8 μg/mL,1876 cells/μL
same,Living cell counts,Klebsiella pneumoniae [12]; 16 μg/mL,880 cells/μL
same,"MIC, rapid drug susceptibility testing of living cells",Klebsiella pneumoniae [12]; [17],8 µg/mL
same,24 hMIC,Klebsiella pneumoniae [13]; [18],8
same,"MIC, conventional drug susceptibility testing",Klebsiella pneumoniae [13]; [19],8 µg/mL
Penicillin,2 hMIC,[14],1
same,Living cell counts,[15]; 0.03 μg/mL,13789 cells/μL
same,Living cell counts,[15]; 0.06 μg/mL,13679 cells/μL
same,Living cell counts,[15]; 0.12 μg/mL,12958 cells/μL
same,Living cell counts,[15]; 0.25 μg/mL,12088 cells/μL
same,Living cell counts,[15]; 0.5 μg/mL,11105 cells/μL
same,Living cell counts,[15]; 1 μg/mL,3085 cells/μL
same,Living cell counts,[15]; 2 μg/mL,1076 cells/μL
same,Living cell counts,[15]; 4 μg/mL,798 cells/μL
same,Living cell counts,[15]; 8 μg/mL,683 cells/μL
same,Living cell counts,[15]; 16 μg/mL,659 cells/μL
same,"MIC, rapid drug susceptibility testing of living cells",[15]; [17],1 µg/mL
same,24 hMIC,[16]; [18],2
same,"MIC, conventional drug susceptibility testing",[16]; [19],2 µg/mL
